{
  "source": "paper PMC4125160",
  "about": "“Neurotoxicity and Mode of Action of N, N-Diethyl-Meta-Toluamide (DEET)” (PLoS ONE, 2014)",
  "key": {"M. domestica": {"test_system": "M. domestica", "experiment": "Topical toxicity bioassay", "type": "in vivo, Musca domestica", "method": "Topical toxicity bioassays on adult female mosquitoes were performed based on the method of Pridgeon et al.. Briefly, insects were chilled on ice for 3 min, during which the appropriate volume (200 nL for mosquitoes, 1 µL for Musca) of chemical (dissolved in 95% ethanol) was applied onto the abdomen using a handheld Hamilton microapplicator. For each inhibitor, five doses were applied to groups of ten insects each and repeated three times. An ethanol-only treatment was included in each experiment as a negative control. Insects were transferred into a holding chamber post-treatment and supplied with free access to sugar water for the duration of the experiment. […] Three LD50 values were obtained and the mean LD50 value was calculated and used for statistical analysis.\nFor all toxicity assays, control mortality was corrected for using Abbots formula [19]; where corrected percent mortality = (% alive in control–% alive in treated) /% alive in control."}, "acetylcholinesterase": {"test_system": "acetylcholinesterase", "experiment": "AChE inhibition, Ellman assay, summary statements across enzymes", "type": "biochemical", "details": "abstract", "text": "In vitro biochemical assays utilized five acetylcholinesterase (AChE) enzymes. Recombinant human AChE (hAChE) was purchased from a commercial source (lyophilized powder, Sigma C1682, St. Louis, MO, USA). Homogenates to prepare Anopheles gambiae AChE (AgAChE) were obtained from the wild type G3 strain and the resistant AKRON strain (BEI Resources; http://www.beiresources.org/). AKRON mosquitoes (from Benin and donated by M. Akogbeto) have both knockdown resistance (kdr) to pyrethroids (L1014F sodium channel mutation) and the G119S AChE mutation (ace-1R), which confers resistance to carbamates, [15]. Both strains were cultured in the Emerging Pathogens Institute, University of Florida, Gainesville, FL, USA from eggs provided by the Center for Disease Control, Atlanta, GA, USA. Homogenates were also used to prepare Aedes aegypti AChE (AeAChE) from mosquitoes provided by the CMAVE, USDA-ARS, Gainesville, FL, USA; Musca domestica AChE (MdAChE) from flies cultured in the Department of Entomology and Nematology, Medical Entomology Laboratory, University of Florida, Gainesville, FL, USA); and Drosophila melanogaster AChE (DmAChE) from flies (Oregon-R strain) cultured in the Emerging Pathogens Institute, University of Florida, Gainesville, FL, USA. Homogenate enzymes were prepared from groups of ten non-blood fed adult female mosquitoes, five whole bodied Drosophila, or three Musca heads homogenized in 1 mL of ice-cold sodium phosphate buffer (0.1 M sodium phosphate, pH 7.8) with an electric motor driven glass tissue homogenizer. The homogenate was centrifuged at 5000×g using a Sorvall Fresco refrigerated centrifuge at 4 °C for 5 minutes. […]\nInhibition of AChE was determined using the Ellman assay and was based on the method outlined in Carlier et al.. […] Changes in absorbance were recorded by a DYNEX Triad spectrophotometer (DYNEX Technologies, Chantilly, VA, USA) at 405 nm. Enzyme concentrations used were within the linear range, therefore eliminating the need for protein quantification."}},
  "data": [
    {"smiles": "CCN(CC)C(=O)c1cccc(C)c1", "note": "[DEET, N, N-diethyl-meta-toluamide]", "values": [
      {"measurement": "LD50 (95% CI)", "setting": "M. domestica; topical application, 24 hr", "result": "8104 (7026–9000)c ng/mg"},
      {"measurement": "signs of intoxication", "setting": "M. domestica; toxicologically equivalent doses", "result": "mostly lethargic with only occasional bouts of excitation"},
      {"measurement": "acetylcholinesterase inhibition", "setting": "acetylcholinesterase; 10 mM", "result": "< 10", "unit": "%"},
      {"measurement": "IC50", "setting": "acetylcholinesterase; Drosophila melanogaster, Musca domestica, and human acetylcholinesterases", "result": "6 to 12", "unit": "mM"}
    ]}
  ]
}
